Results published in patent US8895733B2 (Novartis AG, priority 2010, dated 2014).

Target: T1, Nav 1.7 (Homo sapiens, UniProt Q15858)
T1 construct: expressed in transfected cells
Assay: Whole-cell voltage clamp electrophysiology, automated patch clamp (marker c in Table of Examples)
Format: cell-based
Settings: marker c = Automated patch clamp data; read-out: Nav 1.7 activity
Summary of the method: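 A voltage protocol weighted toward inactivated-state block was used to test compounds on stably expressing cells, with pulses from −65 mV holding to −10 mV test and −100 mV. Currents came from whole-cell automated patch-clamp recordings, either IonWorks Quattro or other automated instruments, usually in perforated-patch mode.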

T1 sequence (Q15858 whole entry): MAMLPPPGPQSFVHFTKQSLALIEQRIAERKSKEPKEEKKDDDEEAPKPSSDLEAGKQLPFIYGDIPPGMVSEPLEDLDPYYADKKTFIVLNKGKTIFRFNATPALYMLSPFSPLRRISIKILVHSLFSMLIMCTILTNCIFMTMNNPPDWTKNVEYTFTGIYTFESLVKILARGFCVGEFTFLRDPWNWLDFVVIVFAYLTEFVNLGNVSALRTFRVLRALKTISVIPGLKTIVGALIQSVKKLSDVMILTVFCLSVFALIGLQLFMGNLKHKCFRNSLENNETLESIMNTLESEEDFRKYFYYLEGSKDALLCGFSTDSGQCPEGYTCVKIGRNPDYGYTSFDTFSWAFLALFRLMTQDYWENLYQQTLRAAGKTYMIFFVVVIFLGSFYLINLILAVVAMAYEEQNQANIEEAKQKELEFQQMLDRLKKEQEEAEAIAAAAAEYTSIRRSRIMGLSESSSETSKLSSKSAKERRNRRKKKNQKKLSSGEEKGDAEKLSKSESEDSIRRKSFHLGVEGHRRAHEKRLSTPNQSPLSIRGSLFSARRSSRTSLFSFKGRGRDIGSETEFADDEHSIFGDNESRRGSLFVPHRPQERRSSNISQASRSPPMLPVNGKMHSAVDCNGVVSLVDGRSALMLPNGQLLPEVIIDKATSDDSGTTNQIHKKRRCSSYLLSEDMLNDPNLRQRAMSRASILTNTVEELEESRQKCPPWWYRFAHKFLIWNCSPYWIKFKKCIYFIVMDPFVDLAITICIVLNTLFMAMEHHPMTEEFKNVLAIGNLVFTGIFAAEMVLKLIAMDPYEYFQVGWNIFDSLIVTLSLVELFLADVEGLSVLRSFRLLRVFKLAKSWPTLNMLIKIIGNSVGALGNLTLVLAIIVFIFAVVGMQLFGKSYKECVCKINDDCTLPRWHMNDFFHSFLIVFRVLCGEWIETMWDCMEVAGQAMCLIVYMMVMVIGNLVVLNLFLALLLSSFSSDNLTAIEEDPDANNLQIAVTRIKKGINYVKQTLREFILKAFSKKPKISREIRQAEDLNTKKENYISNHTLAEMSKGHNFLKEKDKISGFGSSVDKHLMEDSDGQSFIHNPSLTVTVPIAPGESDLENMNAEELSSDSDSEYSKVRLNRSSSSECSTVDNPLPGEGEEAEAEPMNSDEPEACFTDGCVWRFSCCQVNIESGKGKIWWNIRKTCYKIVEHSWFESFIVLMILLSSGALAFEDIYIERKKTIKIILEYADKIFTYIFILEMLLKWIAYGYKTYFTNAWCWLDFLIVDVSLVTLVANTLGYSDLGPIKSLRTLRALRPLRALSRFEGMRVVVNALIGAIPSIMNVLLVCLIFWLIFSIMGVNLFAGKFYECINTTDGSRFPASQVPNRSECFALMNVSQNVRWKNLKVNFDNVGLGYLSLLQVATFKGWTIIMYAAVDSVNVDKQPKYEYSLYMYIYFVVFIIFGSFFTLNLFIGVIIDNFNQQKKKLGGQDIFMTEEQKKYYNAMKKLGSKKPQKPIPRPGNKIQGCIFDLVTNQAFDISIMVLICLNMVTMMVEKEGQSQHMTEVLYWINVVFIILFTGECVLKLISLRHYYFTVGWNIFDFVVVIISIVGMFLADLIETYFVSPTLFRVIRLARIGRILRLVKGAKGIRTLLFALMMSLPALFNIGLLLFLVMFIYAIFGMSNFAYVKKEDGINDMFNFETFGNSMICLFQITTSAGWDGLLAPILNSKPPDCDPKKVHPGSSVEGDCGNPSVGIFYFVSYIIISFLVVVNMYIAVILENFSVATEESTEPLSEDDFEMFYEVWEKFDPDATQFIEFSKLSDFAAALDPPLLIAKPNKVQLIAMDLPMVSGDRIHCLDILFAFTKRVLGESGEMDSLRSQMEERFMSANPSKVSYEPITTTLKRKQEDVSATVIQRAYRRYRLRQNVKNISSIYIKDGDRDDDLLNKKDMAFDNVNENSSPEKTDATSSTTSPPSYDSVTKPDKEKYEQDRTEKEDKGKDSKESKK

SMILES | IC50 [nM]
CC(C)Nc1ccc(-c2nc(-c3nc(N)nc(N(C)c4ccccc4)n3)no2)cn1 [Example 332, 2-N-Methyl-2-N-phenyl-6-(5-{6-[(propan-2-yl)amino]pyridin-3-yl}-1,2,4-oxadiazol-3-yl)-1,3,5-triazine-2,4-diamine] | 1110
CN(c1ccccc1)c1nc(N)nc(-c2noc(-c3ccc(NCC4CC4)nc3)n2)n1 [Example 333, 6-(5-{6-[(cyclopropylmethyl)amino]pyridin-3-yl}-1,2,4-oxadiazol-3-yl)-2-N-methyl-2-N-phenyl-1,3,5-triazine-2,4-diamine] | 126
CN(c1ccccc1)c1nc(N)nc(-c2noc(-c3ccc(=O)[nH]c3)n2)n1 [Example 334, 5-(3-{4-amino-6-[methyl(phenyl)amino]-1,3,5-triazin-2-yl}-1,2,4-oxadiazol-5-yl)-1,2-dihydropyridin-2-one] | 8450
CN(c1ccccc1)c1nc(N)nc(-c2noc(N3CCC(Oc4ccccc4)CC3)n2)n1 [Example 336, 2-N-methyl-6-[5-(4-phenoxypiperidin-1-yl)-1,2,4-oxadiazol-3-yl]-2-N-phenyl-1,3,5-triazine-2,4-diamine] | 255
CN(c1ccccc1)c1nc(N)nc(-c2noc(N[C@H]3CC[C@H](OCC(F)(F)F)CC3)n2)n1 [Example 337] | 7800
CN(c1ccccc1)c1nc(N)nc(-c2noc(N3CCC(OCc4ccccc4)CC3)n2)n1 [Example 338, 6-{5-[4-(benzyloxy)piperidin-1-yl]-1,2,4-oxadiazol-3-yl}-2-N-methyl-2-N-phenyl-1,3,5-triazine-2,4-diamine] | 597
CN(c1ccccc1)c1nc(N)nc(-c2noc(-c3ccc4c(c3)CCO4)n2)n1 [Example 339, 6-[5-(2,3-dihydro-1-benzofuran-5-yl)-1,2,4-oxadiazol-3-yl]-2-N-methyl-2-N-phenyl-1,3,5-triazine-2,4-diamine] | 107
CN(c1ccccc1)c1nc(N)nc(-c2noc(-c3ccc(OCC(F)(F)F)cn3)n2)n1 [Example 340, 2-N-methyl-2-N-phenyl-6-{5-[5-(2,2,2-trifluoroethoxy)pyridin-2-yl]-1,2,4-oxadiazol-3-yl}-1,3,5-triazine-2,4-diamine] | 818
Cc1cnc(-c2nc(-c3nc(N)nc(N(C)c4ccccc4)n3)no2)s1 [Example 342] | 2030
Nc1nc(Nc2cc(F)ccc2F)nc(-c2noc(-c3ccc(OCC(F)(F)F)nc3)n2)n1 [Example 343, 2-N-(2,5-difluorophenyl)-6-{5-[6-(2,2,2-trifluoroethoxy)pyridin-3-yl]-1,2,4-oxadiazol-3-yl}-1,3,5-triazine-2,4-diamine] | 195
CN1CCN(C(=O)c2nc(-c3nc(N)nc(N(C)c4ccccc4)n3)no2)CC1 [Example 344, 2-N-methyl-6-{5-[(4-methylpiperazin-1-yl)carbonyl]-1,2,4-oxadiazol-3-yl}-2-N-phenyl-1,3,5-triazine-2,4-diamine] | 5760
CN(c1ccccc1)c1nc(N)nc(-c2noc(-c3nc(C(F)(F)F)cs3)n2)n1 [Example 345, 2-N-methyl-2-N-phenyl-6-{5-[4-(trifluoromethyl)-1,3-thiazol-2-yl]-1,2,4-oxadiazol-3-yl}-1,3,5-triazine-2,4-diamine] | 1970
CN(c1ccccc1)c1nc(N)nc(-c2noc(N3CCN(C(=O)C(F)(F)F)CC3)n2)n1 [Example 347, 1-[4-(3-{4-amino-6-[methyl(phenyl)amino]-1,3,5-triazin-2-yl}-1,2,4-oxadiazol-5-yl)piperazin-1-yl]-2,2,2-trifluoroethan-1-one] | 5810
CN(c1ccccc1)c1nc(N)nc(-c2noc(-c3ncccc3C(F)(F)F)n2)n1 [Example 348, 2-N-methyl-2-N-phenyl-6-{5-[3-(trifluoromethyl)pyridin-2-yl]-1,2,4-oxadiazol-3-yl}-1,3,5-triazine-2,4-diamine] | 328
